In patent EP3436445B1, “HISTONE DEMETHYLASE INHIBITORS” (Celgene Quanticel Research, Inc., priority 2016, dated 2017):

Legend:
JMJD3 = molecular target: T1, JMJD3 (Homo sapiens, UniProt O15054); experiment: JMJD3 in vitro enzyme inhibition assay (AlphaScreen); type: biochemical; details: Table 5; 1 nM JMJD3, H3K27me3-biotin labeled peptide
T1 construct: purchased BPS Bioscience 50115
Source text: (§1) This assay determines the ability of a test compound to inhibit Jarid1B, JMJD2C and JMJD3 demethylase activity. Baculovirus expressed Jarid1B (GenBank Accession #NM-006618, AA 2-751) was purchased from BPS Bioscience (Cat #50121) or custom made by MolecularThroughput. Baculovirus expressed JMJD2C (GenBank Accession #BC143571, AA 2-372) was purchased from BPS Bioscience (Cat#50105). Baculovirus expressed JMJD3 (GenBank Accession #NM-001080424, AA1043-end) was purchased from BPS Bioscience (Cat#50115).
The ability of test compounds to inhibit the activity of JMJD3 was determined in 384-well plate format under the following reaction conditions: 1 nM JMJD3, 250 nM H3K27me3-biotin labeled peptide (Anaspec cat # 64367), 1 µM alpha-ketoglutaric acid in assay buffer of 50 mM HEPES, pH7.3, 0.005% Brij35, 0.5 mM TCEP, 0.2 mg/ml BSA, 50 µM sodium L-ascorbate, 5 µM ammonium iron(II) sulfate. Reaction product is determined quantitatively by AlphaScreen detection after the addition of detection reagents anti-H3K27me1 antibody, 5 µg/ml AlphaScreen® Streptavidin-coated Donor beads, and 5 µg/ml AlphaScreen® Protein A Acceptor beads in 50 mM HEPES, pH7.3, 10 mM NaCl, 0.005% Brij35, 10 mM EDTA, 2 mg/ml BSA.
The assay reaction was initiated by the following: 3 µl of the mixture of 750 nM H3K27me3-biotin labeled peptide and 3 µM alpha-ketoglutaric acid with 3 µl of 11-point serial diluted inhibitor in 3% DMSO are added to each well of 384 well Proxiplate (Perkin Elmer), followed by the addition of 3 µl of 3 nM JMJD3 to initiate the reaction. The reaction mixture is incubated at room temperature for 20 minutes, and terminated by the addition of 3 µl of appropriate dilution of anti H3K27me1 antibody in 50 mM HEPES, pH7.3, 10 mM NaCl, 0.005% Brij35, 10 mM EDTA, 2 mg/ml BSA. Plates will then incubated at room temperature for 1 hour, followed by addition of 3 µl of 25 µg/ml AlphaScreen® Streptavidin-coated Donor beads and AlphaScreen® Protein A Acceptor beads in 50 mM HEPES, pH7.3, 10 mM NaCl, 0.005% Brij35, 10 mM EDTA, 2 mg/ml BSA. Plates will then be read by EnVision Multilabel Reader in AlphaScreen mode after minimum 2 hour incubation at room temperature. The AlphaScreen signal for each well is used to determine inhibition constant (IC50).

Jarid1B = molecular target: T2, Jarid1B (Homo sapiens, UniProt Q9UGL1); experiment: Jarid1B in vitro enzyme inhibition assay (TR-FRET); type: biochemical; details: Table 5; 0.8 nM Jarid1B, H3K4me3-biotin labeled peptide; read-out: JARID1B IC5
T2 construct: purchased BPS Bioscience (or custom made by MolecularThroughput) 50121
T2 sequence (Q9UGL1 2-751): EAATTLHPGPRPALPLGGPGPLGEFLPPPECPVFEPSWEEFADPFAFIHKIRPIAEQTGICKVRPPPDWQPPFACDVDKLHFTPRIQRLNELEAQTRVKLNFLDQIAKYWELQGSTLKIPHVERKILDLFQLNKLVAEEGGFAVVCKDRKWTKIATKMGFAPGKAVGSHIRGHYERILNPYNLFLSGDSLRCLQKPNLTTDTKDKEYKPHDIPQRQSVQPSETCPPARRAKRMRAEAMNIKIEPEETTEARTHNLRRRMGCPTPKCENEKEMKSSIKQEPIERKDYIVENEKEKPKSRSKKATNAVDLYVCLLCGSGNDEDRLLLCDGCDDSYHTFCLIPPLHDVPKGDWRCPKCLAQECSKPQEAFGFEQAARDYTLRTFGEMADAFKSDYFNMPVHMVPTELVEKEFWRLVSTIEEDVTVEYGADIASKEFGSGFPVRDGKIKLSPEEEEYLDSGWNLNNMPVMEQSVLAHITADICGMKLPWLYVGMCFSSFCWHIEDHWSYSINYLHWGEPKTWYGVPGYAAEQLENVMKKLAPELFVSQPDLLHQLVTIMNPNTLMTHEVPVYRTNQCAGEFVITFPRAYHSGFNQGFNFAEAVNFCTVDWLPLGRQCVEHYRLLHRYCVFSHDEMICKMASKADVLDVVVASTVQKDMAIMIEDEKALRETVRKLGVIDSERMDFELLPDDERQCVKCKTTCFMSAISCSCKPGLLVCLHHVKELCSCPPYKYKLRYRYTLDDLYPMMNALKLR
Source text: as §1
The ability of test compounds to inhibit the activity of Jarid1B was determined in 384-well plate format under the following reaction conditions: 0.8 nM Jarid1B, 300 nM H3K4me3-biotin labeled peptide (Anaspec cat #64357), 2 µM alpha-ketoglutaric acid in assay buffer of 50 mM HEPES, pH7.3, 0.005% Brij35, 0.5 mM TCEP, 0.2 mg/ml BSA, 50 µM sodium L-ascorbate, and 2 µM ammonium iron(II) sulfate. Reaction product was determined quantitatively by TR-FRET after the addition of detection reagent Phycolink Streptavidin-allophycocyanin (Prozyme) and Europium-anti-mono-or di-methylated histone H3 lysine 4 (H3K4me1-2) antibody (PerkinElmer) in the presence of 5 mM EDTA in LANCE detection buffer (PerkinElmer) at a final concentration of 25 nM and 1 nM, respectively.
The assay reaction was initiated by the following: 2 µl of the mixture of 900 nM H3K4me3-biotin labeled peptide and 6 µM alpha-ketoglutaric acid with 2 µl of 11-point serial diluted inhibitor in 3% DMSO was added to each well of the plate, followed by the addition of 2 µl of 2.4 nM Jarid1B to initiate the reaction. The reaction mixture was incubated at room temperature for 30 minutes, and terminated by the addition of 6 µl of 5 mM EDTA in LANCE detection buffer containing 50 nM Phycolink Streptavidin-allophycocyanin and 2 nM Europium-anti-H3K4me1-2 antibody. Plates were read by EnVisionMultilabel Reader in TR-FRET mode (excitation at 320 nm, emission at 615 nm and 665 nm) after 1 hour incubation at room temperature. A ratio was calculated (665/615) for each well and fitted to determine inhibition constant (IC50).

T1 sequence (O15054 1043-1682 isoform O15054-1): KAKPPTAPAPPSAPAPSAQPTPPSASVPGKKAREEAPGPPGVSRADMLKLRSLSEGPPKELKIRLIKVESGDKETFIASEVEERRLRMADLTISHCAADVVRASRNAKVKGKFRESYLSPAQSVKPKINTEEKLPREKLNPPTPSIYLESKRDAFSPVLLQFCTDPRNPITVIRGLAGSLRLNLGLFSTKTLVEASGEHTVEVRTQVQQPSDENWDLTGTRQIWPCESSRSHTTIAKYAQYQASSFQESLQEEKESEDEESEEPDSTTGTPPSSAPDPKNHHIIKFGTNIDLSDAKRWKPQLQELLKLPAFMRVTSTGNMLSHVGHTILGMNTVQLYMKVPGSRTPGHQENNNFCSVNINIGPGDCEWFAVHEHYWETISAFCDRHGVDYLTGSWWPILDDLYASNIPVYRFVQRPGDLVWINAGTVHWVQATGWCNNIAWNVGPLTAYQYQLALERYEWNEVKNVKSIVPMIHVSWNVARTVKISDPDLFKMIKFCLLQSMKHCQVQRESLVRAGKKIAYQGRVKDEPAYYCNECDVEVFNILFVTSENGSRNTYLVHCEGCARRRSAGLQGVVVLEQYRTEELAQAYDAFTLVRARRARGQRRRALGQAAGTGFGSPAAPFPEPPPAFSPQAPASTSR

Structure (SMILES)	IC50 (JMJD3) [µM]	IC50 (Jarid1B) [µM]
Fc1cccc(F)c1Cn1cnc(-c2cc(-c3nn[nH]c3C(F)(F)F)ccn2)c1 [Example 69, 2-{1-[(2,6-difluorophenyl)methyl]-1H-imidazol-4-yl}-4-[5-(trifluoromethyl)-1H-1,2,3-triazol-4-yl]pyridine]	> 10	0.1 to 1
Fc1ccc2c(c1)CCCC2Cn1cnc(-c2cc(-c3nn[nH]c3C(F)(F)F)ccn2)c1 (centres unmarked) [Example 100, 2-{1-[(6-fluoro-1,2,3,4-tetrahydronaphthalen-1-yl)methyl]-1H-imidazol-4-yl}-4-[5-(trifluoromethyl)-1H-1,2,3-triazol-4-yl]pyridine]	> 10	≤ 0.1
Fc1ccccc1Cn1cnc(-c2cc(-c3nn[nH]c3C(F)(F)F)ccn2)c1 [Example 62, 2-{1-[(2-fluoroprtenyl)methyl]-1H-imidazol-4-yl}-4-[5-(trifluoromethyl)-1H-1,2,3-triazol-4-yl]pyridine]	> 10	0.1 to 1
Cc1ccccc1Cn1cnc(-c2cc(-c3nn[nH]c3C(F)(F)F)ccn2)c1 [Example 66, 2-{1-[(2-methylphenyl)methyl]-1H-imidazol-4-yl}-4-[5-(trifluoromethyl)-1H-1,2,3-triazol-4-yl]pyridine]	> 10	0.1 to 1
COc1ccc(Cn2cnc(-c3cc(-c4nn[nH]c4C(F)(F)F)ccn3)c2)cc1 [Example 67, 2-{1-[(4-methoxyphenyl)methyl]-1H-imidazol-4-yl}-4-[5-(trifluoromethyl)-1H-1,2,3-triazol-4-yl]pyridine]	> 10	0.1 to 1
FC(F)(F)c1[nH]nnc1-c1ccnc(-c2cn(CC3CCOc4ccccc43)cn2)c1 (centres unmarked) [Example 98, 2-{1-[(3,4-dihydro-2H-1-benzopyran-4-yl)methyl]-1H-imidazol-4-yl}-4-[5-(trifluoromethyl)-1H-1,2,3-triazol-4-yl]pyridine]	> 10	≤ 0.1
CCC(c1ccccc1)n1cnc(-c2cc(-c3nn[nH]c3C(F)(F)F)ccn2)c1 (centres unmarked) [Example 74, 2-[1-(1-phenylpropyl)-1H-imidazol-4-yl]-4-[5-(trifluoromethyl)-1H-1,2,3-triazol-4-yl]pyridine]	> 10	0.1 to 1
Cc1cc(F)ccc1Cn1cnc(-c2cc(-c3nn[nH]c3C(F)(F)F)ccn2)c1 [Example 70, 2-{1-[(4-fluoro-2-methylphenyl)methyl]-1H-imidazol-4-yl}-4-[5-(trifluoromethyl)-1H-1,2,3-triazol-4-yl]pyridine]	> 10	0.1 to 1
O=C(c1ccccc1)N1CCC[C@H](n2cnc(-c3cc(-c4nn[nH]c4C(F)(F)F)ccn3)c2)C1 [Example 90, 2-{1-[(3S)-1-benzoylpiperidin-3-yl]-1H-imidazol-4-yl}-4-[5-(trifluoromethyl)-1H-1,2,3-triazol-4-yl]pyridine]	> 10	≤ 0.1
COc1cccc2c1CCCC2Cn1cnc(-c2cc(-c3nn[nH]c3C(F)(F)F)ccn2)c1 (centres unmarked) [Example 104, 2-{1-[(5-methoxy-1,2,3,4-tetrahydronaphthalen-1-yl)methyl]-1H-imidazol-4-yl}-4-[5-(trifluoromethyl)-1H-1,2,3-triazol-4-yl]pyridine]	> 10	0.1 to 1
FC(F)(F)c1[nH]nnc1-c1ccnc(-c2cn(Cc3ccccc3Cl)cn2)c1 [Example 64, 2-{1-[(2-chlorophenyl)methyl]-1H-imidazol-4-yl}-4-[5-(trifluoromethyl)-1H-1,2,3-triazol-4-yl]pyridine]	> 10	0.1 to 1
O=C(c1ccccc1)N1CCC[C@@H](n2cnc(-c3cc(-c4nn[nH]c4C(F)(F)F)ccn3)c2)C1 [Example 89, 2-{1-[(3R)-1-benzoylpiperidin-3-yl]-1H-imidazol-4-yl}-4-[5-(trifluoromethyl)-1H-1,2,3-triazol-4-yl]pyridine]	> 10	≤ 0.1
Fc1ccc(F)c(CCn2cnc(-c3cc(-c4nn[nH]c4C(F)(F)F)ccn3)c2)c1 [Example 88, 2-{1-[2-(2,5-difluorophenyl)ethyl]-1H-imidazol-4-yl}-4-[5-(trifluoromethyl)-1H-1,2,3-triazol-4-yl]pyridine]	> 10	≤ 0.1
Fc1ccc(Cn2cnc(-c3cc(-c4nn[nH]c4C(F)(F)F)ccn3)c2)c(F)c1 [Example 68, 2-{1-[(2,4-difluorophenyl)methyl]-1H-imidazol-4-yl}-4-[5-(trifluoromethyl)-1H-1,2,3-triazol-4-yl]pyridine]	> 10	0.1 to 1
CCc1ccc(CCn2cnc(-c3cc(-c4nn[nH]c4C(F)(F)F)ccn3)c2)cc1 [Example 95, 2-{1-[2-(4-ethylphenyl)ethyl]-1H-imidazol-4-yl}-4-[5-(trifluoromethyl)-1H-1,2,3-triazol-4-yl]pyridine]	> 10	0.1 to 1
COc1cccc2c1C(Cn1cnc(-c3cc(-c4nn[nH]c4C(F)(F)F)ccn3)c1)CCC2 (centres unmarked) [Example 107, 2-{1-[(8-methoxy-1,2,3,4-tetrahydronaphthalen-1-yl)methyl]-1H-imidazol-4-yl}-4-[5-(trifluoromethyl)-1H-1,2,3-triazol-4-yl]pyridine]	> 10	0.1 to 1
FC(F)(F)c1[nH]nnc1-c1ccnc(-c2cn(CCc3ccccc3Cl)cn2)c1 [Example 57]	> 10	≤ 0.1
Cn1cnc(-c2cc(-c3nn[nH]c3C(F)(F)F)ccn2)c1-c1ccc(F)cc1 [Example 97, 2-[5-(4-fluorophenyl)-1-methyl-1H-imidazol-4-yl]-4-[5-(trifluoromethyl)-1H-1,2,3-triazol-4-yl]pyridine]	> 10	≤ 0.1
CCOc1ccccc1CCn1cnc(-c2cc(-c3nn[nH]c3C(F)(F)F)ccn2)c1 [Example 59]	> 10	≤ 0.1
